This is an account of results in patent US7858585B2, “Hydrogels and uses thereof” (University of Delaware, priority 2005, dated 2010).

The conditions of data set [1]: cited from earlier work.
For data set [2], the system named is fibroblasts (NIH 3T3, mouse). In words: Fibroblast adhesion and proliferation on hydrogel by optical microscopy. It is filed as cell-based. Conditions: fresh media provided; assay stopped after 1 month. How it is done:
These cells were used as a model system because of their importance in connective tissue development and their easily distinguished morphology when adhered to the hydrogel scaffold. Qualitative studies were performed in which cells were added to either polystyrene control wells or wells containing a uniform slab (3 mm thick) of MAX1-hydrogel. Cell adhesion was qualitatively monitored via direct observation of cell spreading after four hours from the time of initial cell seeding by optical microscopy (a quantitative cell attachment assay is described below, see also Akiyama, S. K. Functional analysis of cell adhesion: Quantitation of cell-matrix attachment, 2002; Vol. 69, pp 281-296). Non-adhered fibroblasts have rounded morphologies and adhered fibroblasts have spread morphologies Proliferation was measured both qualitatively by optical microscopy and quantitatively by a ^3H thymidine-based cell seeding assay as described below. Hydrogels were prepared in 48 well tissue culture plates by either one of the following protocols. Protocol 1: MAX1 was dissolved in water (resulting in an acidic solution, pH˜5) and an equal volume of buffer (pH 9, 250 mM borate, 20 mM NaCl) was added at room temperature to induce folding/self-assembly resulting in a 2 wt % hydrogel. The resulting gel was bathed in DMEM containing 10% calf serum and 10 mg/mL gentamicin. […]

Data set [3] in a line: Temperature dependent CD of peptide folding and self-assembly (Tgel), with rheology of thermal reversibility. It is filed as physicochemical. Conditions: for Tgel, temperature at which folding and consequent self-assembly is triggered: 150 μM peptide, 125 mM Borate, 10 mM NaCl, pH 9, CD [θ]218; for reversibility of thermally induced hydrogelation: CD 150 μM and rheology 2 wt %, heating/cooling cycles 5-80° C. The text has this:
At low temperature MAX1 is unfolded (and unassembled). At high temperature MAX1 folds into beta-sheet (and consequently self-assembles into a hydrogel). […] The relative hydrophobicity is MAX1>MAX2>MAX3 due to the isostructural but less hydrophobic substitutions of threonine for valine at the underlined positions. The most hydrophobic folds at the lowest temperature while the least hydrophobic folds at the highest temperature. This is a direct manifestations of the molecular parameter manipulations described in FIG. 2. Also shown are the calculated free energy of transfer of each corresponding unfolded peptide having an overall +8 charge state from octanol into water at 25° C. MAX1, the most hydrophobic has the highest free energy of transfer equal to 7.60 kcal/mol. MAX2 has a calculated transfer free energy of 6.88 kcal/mol, while the least hydrophobic MAX3 has the lowest energy of transfer of 6.45 kcal/mol.
This allows the characteristics of the hydrogels of the invention to be varied by adjusting these parameters. […] It is well known that water is better able to solvate hydrophobic groups at low temperatures. This phenomenon has been used to describe the cold denaturation of proteins where some proteins unfold at low temperatures, exposing their hydrophobic interiors to aqueous solvent. A 150 μM aqueous solution of MAX1 unfolds when cooled below room temperature. The CD spectrum at 5° C. is consistent with random coil conformation, FIG. 9A. However, warming the solution to 40° C. results in a spectra consistent with β-sheet structure. […] In fact, previous studies involving the pH induced folding and self-assembly of MAX1 were performed at 20° C. At this temperature, folding and self-assembly are slow enough to be conveniently monitored. At higher temperatures, folding and self-assembly leading to hydrogelation is fast (instantaneous to seconds depending on concentration). If the formation of hydrophobic interactions affects the folding and self-assembly process, then altering the hydrophobic content of MAX1 should affect the temperature at which folding is triggered. […] MAX2 is identical to MAX1 except that one valine residue has been replaced with the isostructural, but less hydrophobic residue, threonine. In MAX3, two valines are replaced with threonine residues. The resulting peptides vary in their hydrophobicity as evident by comparing calculated free energies of transfer from octanol into water, FIG. 9. […] Thus, the formation of hydrophobic contacts influences folding and self-assembly. […] Thus, the characteristics of the hydrogels of the invention can be varied by adjusting the amino acid residues of the peptides used to form the hydrogels to increase or decrease the hydrophobicity of the amino acid residues used.
There are reports of large polymers that are thermally responsive. The present invention provides the first system that employs temperature triggered folding to induce self-assembly. […] Heating the solution to 80° C. results in a spectra consistent with β-sheet structure. […] The temperatures used in both CD and rheology bracket the temperature (Tgel=60° C., FIG. 9) at which folding and consequent self-assembly is triggered. […] For example, free flowing peptide solutions could be prepared at room temperature and administered in vivo where the temperature of the body could induce gelation. Some Poly-N-isopropylacrylamide polymers have been engineered have been engineered to undergo such transitions ultimately affording extracellular-like scaffolds for tissue regeneration. The above studies support the idea that the formation of hydrophobic interactions are important. MAX1-3 all contain valines and threonines at hydrogen bonded positions. At these positions, their side chains prefer to adopt a trans rotamer. […]

The nature of data set [4]: Folding (CD) and hydrogelation of sequence variants under folding conditions. Conditions: for conformation by CD under folding conditions: 150 μM, pH 9.0, 125 mM Borate, 10 mM NaCl. The format is physicochemical. The text has this:
In some embodiments of the invention, various functionalities (e.g., cell adhesion epitopes, receptor agonists, receptor antagonists, ligands, small molecules, etc) may be incorporated into the hairpin hydrogel scaffold. One way to accomplish this would be to functionalize one or more amino acid side chains of the peptide. […] In some embodiments, the moieties to be incorporated at a particular side chain may be much larger (e.g. RGD-based motifs) and may contain charged residues. MAX5 (VKVKVKVKV^DPPTKVKEKVKV-NH2) was prepared to investigate the possibility of incorporating a charged residue on the hydrophobic face of MAX1. The sequence contains a glutamic acid residue at position 16 which is negatively charged at basic pH where MAX1 normally folds and assembles. […] However, alterations to the hydrophilic face of MAX1 are well tolerated. Sequences in which one or two lysine residues are replaced with other residues such as cysteine, serine, and glutamic acid are capable of folding and self-assembly into rigid hydrogels (data not shown).
The peptides described above contain identical turn sequences, namely (-V^DPPT-). This sequence has a strong propensity to form a type II′ turn and therefore helps to drive intramolecular folding. Since intramolecular folding must occur prior to self-assembly, alterations to this turn sequence that inhibit turn structure formation can be used to modulate intramolecular folding and self-assembly leading to hydrogelation. MAX9 was prepared to probe the importance of the turn region (VKVKVKVKV^LPPTKVKVKVKV-NH2). MAX9 is identical to MAX1 with the exception that the ^DPro at position ten has been replaced with ^LPro. Unlike the dipeptide ^DPro^LPro contained within MAX1 that favors type II′ turn formation, the ^LPro^LPro motif of MAX9 favors an open conformation. The two strands emanating from an open ^LPro^LPro conformation would be projected in opposite directions. Thus, intramolecular folding resulting in β-hairpin formation would be highly unfavored. […]

Square brackets hold non-standard residues; d marks the D form. Ends that are not written are not given here. Peptide text beside a SMILES is read from it. Some results are limits rather than exact numbers.

What is called Kd is the constant that tells how readily two partners part at equilibrium. `NC(=O)CN1CCN(CC(N)=O)CCN(CC(N)=O)CCN(CC(N)=O)CC1` [DOTAM]: the Kd in data set [1] (read-out: Kd for calcium) is 29 nM. Take `CC(C)[C@H](N)C(=O)N[C@@H](CCCCN)C(=O)N[C@H](C(=O)N[C@@H](CCCCN)C(=O)N[C@H](C(=O)N[C@@H](CCCCN)C(=O)N[C@H](C(=O)N[C@@H](CCCCN)C(=O)N[C@H](C(=O)N1CCC[C@@H]1C(=O)N1CCC[C@H]1C(=O)N[C@H](C(=O)N[C@@H](CCCCN)C(=O)N[C@H](C(=O)N[C@@H](CCCCN)C(=O)N[C@H](C(=O)N[C@@H](CCCCN)C(=O)N[C@H](C(=O)N[C@@H](CCCCN)C(=O)N[C@H](C(N)=O)C(C)C)C(C)C)C(C)C)C(C)C)[C@@H](C)O)C(C)C)C(C)C)C(C)C)C(C)C` [MAX1, VKVKVKVK V^DPPT KVKVKVKV-NH2] (H-VKVKVKVKV[dP]PTKVKVKVKV-NH2): the “time cells remain viable on gel” value in data set [2] is not below 1 month. -DRKADGYIDFEE-: the “Kd for Ca(II)” value in data set [1] (linear peptide, calcium binding loop of Troponin C) is on record as “low mM”. As for KVKVKVKV K^DPPS VKVKVKVK-NH2 [MAX4], the “Tgel, temperature at which folding and consequent self-assembly is triggered” value in data set [3] worked out at 20 °C. As for VKVKVKTK V^DPPT KVKTKVKV-NH2 [MAX3], in data set [3], the “Tgel, temperature at which folding and consequent self-assembly is triggered” value is 60 °C; the “reversibility of thermally induced hydrogelation” value is “thermally reversible”. For the molecule “VKVKVKVK VPPT KVKVKVKV-NH2 (VKVKVKVKVPPTKVKVKVKV-NH2) [MAX9]”, the “conformation by CD under folding conditions” value in data set [4] is “only random coil”. The hydrogelation result in data set [4] (folding conditions, 2 wt % solutions) was “failed to undergo hydrogelation”. Consider VKVKVKVK V^DPPT KVKEKVKV-NH2 [MAX5], for which, in data set [4], the “conformation by CD under folding conditions” value is “random coil”. On to VKVKVKVK V^DPPT KVKTKVKV-NH2 [MAX2], for which the “reversibility of thermally induced hydrogelation” value in data set [3] is “not reversible”. Also, in data set [3] (pH 9 (10 mM NaCl)), the “temperature above which peptide folds/self-assembles” value was “greater than 45 °C” and the “temperature below which peptide is unfolded” value is “below 40 °C”.
